Measured values from ChEMBL document CHEMBL1201862, “PubChem BioAssay data set” (2004).
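Exposure lasted 48 hours, with cells grown in 96-well plates and compounds tested at five concentrations. GI50 = concentration required for 50% inhibition of growth.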 The source made the active and inactive calls. No stated cut-off is given here; in the data, active = GI50 up to about 1.1 µM and inactive = higher.

Tests used:
Experiment in all cases: NCI anticancer screen, dose series, 48 h
[1] = tested on: EKVX
[2] = tested on: Malme-3M
[3] = tested on: CAKI-1
[4] = tested on: SNB-19
[5] = tested on: MDA-MB-435
[6] = tested on: KM12
[7] = tested on: NCI/ADR-RES
[8] = tested on: U-251
[9] = tested on: SK-MEL-2
[10] = tested on: OVCAR-5
[11] = tested on: RXF 393
[12] = tested on: T47D
[13] = tested on: SR
[14] = tested on: CCRF-CEM
[15] = tested on: UO-31
[16] = tested on: MDA-MB-231
[17] = tested on: HCT-116
[18] = tested on: DU-145
[19] = tested on: HOP-92
[20] = tested on: MDA-N

Measured: GI50

Cc1cc2nc3n(c2cc1C)C(c1c(F)cccc1F)SC3 (centres undefined)
inactive: [1] 34.8 µM | [2] 20.8 µM | [3] 17.3 µM | [4] 18.3 µM | [5] 14.2 µM | [6] > 10 µM | [7] 16.8 µM | [8] 16.1 µM | [9] 18.5 µM | [10] 19.2 µM | [11] 20.8 µM | [12] 57.8 µM | [13] 12.7 µM | [14] 19.4 µM | [15] > 10 µM | [16] 17.9 µM | [17] 14.1 µM

CC(=O)OCCOCn1c2c(c(=O)[nH]c1=O)CCC2
inactive: [1] > 100 µM | [2] > 100 µM | [3] > 100 µM | [4] 8.53 µM | [5] > 100 µM | [6] > 100 µM | [8] > 100 µM | [9] > 100 µM | [10] > 100 µM | [18] > 100 µM | [19] > 100 µM | [11] > 100 µM | [13] > 100 µM | [14] > 100 µM | [20] > 100 µM | [15] > 100 µM | [16] > 100 µM | [17] > 100 µM

c1ccc(C2CC(N3CCOCC3)=Nc3ccccc3N2)cc1 (centres undefined)
inactive: [1] > 100 µM | [2] 80.9 µM | [3] > 100 µM | [4] > 100 µM | [5] 54.3 µM | [6] > 100 µM | [7] > 100 µM | [8] > 100 µM | [9] > 100 µM | [10] > 100 µM | [18] > 100 µM | [11] 78.5 µM | [14] > 100 µM | [20] > 100 µM | [15] > 100 µM | [16] > 100 µM | [17] > 100 µM

O=C(CSCC(=O)N/N=C/c1cc(I)cc(I)c1O)N/N=C/c1cc(I)cc(I)c1O
inactive: [1] 16 µM | [2] 18.1 µM | [3] 18.3 µM | [4] 10.5 µM | [5] 25.4 µM | [6] 25.8 µM | [7] 17.2 µM | [8] 6.61 µM | [9] 23.7 µM | [10] 39.5 µM | [18] 17.7 µM | [19] 39.5 µM | [11] 10.6 µM | [12] 34.3 µM | [13] 3.54 µM | [15] 13.2 µM | [16] 7.18 µM | [17] 9.29 µM

COC(=O)c1ccc(Cc2cc(Cc3ccc(C(=O)OC)cc3)cc(Cc3ccc(C(=O)OC)cc3)c2)cc1
inactive: [1] > 25 µM | [2] > 25 µM | [4] > 25 µM | [5] > 25 µM | [6] > 25 µM | [7] > 25 µM | [8] > 25 µM | [9] > 25 µM | [10] > 25 µM | [18] > 25 µM | [19] > 25 µM | [13] > 25 µM | [20] > 25 µM | [15] > 25 µM | [16] > 25 µM | [17] > 25 µM

CC(C)c1cc(OCC(O)CO)cc(C(C)C)c1 (centres undefined)
inactive: [1] > 100 µM | [2] > 100 µM | [3] > 100 µM | [4] > 100 µM | [6] > 100 µM | [8] > 100 µM | [9] > 100 µM | [10] > 100 µM | [19] > 100 µM | [11] > 100 µM | [13] > 100 µM | [14] > 100 µM | [15] > 100 µM | [17] > 100 µM

CC(=O)O[C@H]1C(=O)[C@@]2(C)[C@H]([C@H](OC(=O)c3ccco3)[C@]3(O)C[C@H](OC(=O)[C@H](O)[C@@H](NC(=O)c4ccccc4)c4ccccc4)C(C)=C1C3(C)C)[C@]1(OC(C)=O)CO[C@@H]1C[C@@H]2O
active: [2] 0.119 µM | [4] 0.344 µM | [5] 0.0165 µM | [6] 0.0834 µM | [8] 0.125 µM | [9] 0.0594 µM | [10] 0.333 µM | [18] 0.676 µM | [11] 0.681 µM | [13] 0.0809 µM | [14] 0.05 µM | [20] 0.0127 µM | [17] 0.059 µM
inactive: [1] > 8.79 µM | [3] 14.3 µM | [7] > 25 µM | [15] > 18.3 µM | [16] 4.58 µM

COc1ccc2nc3c(c(NCCCN(C)C)c2c1)CCCC3
inactive: [1] 17.4 µM | [2] 19.7 µM | [3] 11.9 µM | [4] 21.6 µM | [6] 12.5 µM | [8] 15.5 µM | [9] 17.3 µM | [10] 13.5 µM | [19] 5.28 µM | [11] 14.8 µM | [13] 2.42 µM | [14] 4.83 µM | [15] 16 µM | [17] 4.74 µM

COc1ccc(-c2ncn(C[Si](C)(C)C)c2-c2ccc(OC)cc2)cc1
inactive: [1] 3.13 µM | [2] 10.4 µM | [3] 5.85 µM | [4] 7.64 µM | [5] 3.73 µM | [6] 4.92 µM | [7] 5.08 µM | [8] 6.9 µM | [9] 7.08 µM | [10] 5.02 µM | [19] 4.7 µM | [11] 6.25 µM | [13] 6.19 µM | [20] 3.1 µM | [15] 2.28 µM | [16] 12.9 µM | [17] 2.92 µM

COc1ccc(-c2c(C#N)c(S)n(NS(=O)(=O)c3ccc(C)cc3)c(=O)c2C#N)cc1
inactive: [1] 25.8 µM | [2] 24.6 µM | [3] 44.5 µM | [4] 35.8 µM | [6] 15.3 µM | [7] 20.3 µM | [8] 29.4 µM | [9] 15.3 µM | [10] 16.7 µM | [19] 33.1 µM | [11] 17.5 µM | [14] 4.06 µM | [20] 17.6 µM | [16] 17.8 µM | [17] 14.4 µM

Cc1nnc(N/N=C(/C(=O)C(C#N)c2ccccc2)C(C#N)c2ccccc2)n1N (centres undefined)
inactive: [1] 51.9 µM | [2] 4.18 µM | [3] 32.1 µM | [4] 56 µM | [6] 28.4 µM | [8] 32.6 µM | [9] 5.25 µM | [10] > 42.9 µM | [19] > 100 µM | [11] 17 µM | [13] 32.3 µM | [14] 2.12 µM | [15] 26.4 µM | [17] 2.46 µM

N#Cc1[nH]c(=S)[nH]c1N
inactive: [1] > 100 µM | [2] > 100 µM | [3] > 100 µM | [4] > 100 µM | [5] > 100 µM | [7] > 100 µM | [8] > 100 µM | [9] > 100 µM | [10] > 100 µM | [18] > 100 µM | [19] > 100 µM | [11] > 100 µM | [13] > 100 µM | [14] > 100 µM | [15] > 100 µM | [17] > 100 µM
